This passage reports serotonin reuptake inhibition and norepinephrine uptake inhibition results from US20070173522A1, “4-(2-Phenylsulfanyl-phenyl)-1,2,3,6- tetrahydropyridine derivatives as serotonin reuptake inhibitors” (priority 2003, published 2007).

SMILES strings stand for the structures.

The target of test [1] is T1, serotonin reuptake (5-HT uptake into rat cortical synaptosomes) (Rattus norvegicus, UniProt P31652).
T1 construct: Whole brains from male Wistar rats (125-225 g), excluding cerebellum, are homogenized; from tissue; host or cells: synaptosomal preparation from whole brain (excluding cerebellum) of male Wistar rats
T1 sequence (P31652 whole entry): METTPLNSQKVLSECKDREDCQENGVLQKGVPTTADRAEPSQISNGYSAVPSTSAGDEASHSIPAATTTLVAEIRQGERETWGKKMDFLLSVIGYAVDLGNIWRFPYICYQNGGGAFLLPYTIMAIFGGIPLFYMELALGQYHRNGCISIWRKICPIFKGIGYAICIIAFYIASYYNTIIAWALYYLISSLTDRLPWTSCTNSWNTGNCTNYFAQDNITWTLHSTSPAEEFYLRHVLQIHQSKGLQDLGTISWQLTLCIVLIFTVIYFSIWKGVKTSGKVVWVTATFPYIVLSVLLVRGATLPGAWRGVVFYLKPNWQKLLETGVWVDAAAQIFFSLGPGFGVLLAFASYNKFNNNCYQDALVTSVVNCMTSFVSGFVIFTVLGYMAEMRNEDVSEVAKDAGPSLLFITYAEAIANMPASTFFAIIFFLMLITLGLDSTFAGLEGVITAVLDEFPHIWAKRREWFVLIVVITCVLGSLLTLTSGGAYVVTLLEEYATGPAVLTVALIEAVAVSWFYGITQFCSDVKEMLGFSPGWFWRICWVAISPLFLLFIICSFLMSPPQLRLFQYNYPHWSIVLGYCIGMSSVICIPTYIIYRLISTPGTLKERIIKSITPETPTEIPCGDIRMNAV
The test can be described thus: Measurements of [3H]-5-HT uptake into rat cortical synaptosomes. The following applies: result in words; test described in the examples section. The test is classed as biochemical. On the procedure:
Measurements of [^3]-5-HT Uptake into Rat Cortical Synaptosomes.
Whole brains from male Wistar rats (125-225 g), excluding cerebellum, are homogenized in 0.32 M sucrose supplemented with 1 mM nialamid with a glass/teflon homogenizer. The homogenate is centrifuged at 600×g for 10 mil at 4° C. The pellet is discarded and the supernatant is centrifuged at 20.000×g for 55 min. The final pellet is homogenized (20 sec) in this assay buffer (0.5 mg original tissue/well). Test compounds (or buffer) and 10 nM [^3H]-5-HT are added to 96 well plates and shaken briefly. Composition of assay buffer: 123 mM NaCl, 4.82 mM KCl, 0.973 mM CaCl2, 1.12 mM MgSO4, 12.66 mM Na2HPO4, 2.97 mM NaH2PO4, 0.162 mM EDTA, 10 mM glucose and 1 mM ascorbic acid. Buffer is oxygenated with 95% O2/5% CO2 for 10 min at 37° C. and pH is adjusted 7.4. The incubation is started by adding tissue to a final assay volume of 0.2 mL. After 15 min incubation with radioligand at 37° C., samples are filtered directly on Unifilter GF/C glass fiber filters (soaked for 1 hour in 0.1% polyethylenimine) under vacuum and immediately washed with 3×0.2 ml assay buffer. Non-specific uptake is determined using citalopram (10 μM final concentration). Citalopram is included as reference in all experiments as dose-response curve.

Test [2] has as its target T2, norepinephrine uptake (noradrenaline uptake into rat cortical synaptosomes) (Rattus norvegicus, UniProt Q63380).
T2 construct: Fresh cortex from male Wistar rats (125-225 g) are homogenized in 0.4M sucrose; from tissue; host or cells: synaptosomal preparation from fresh cortex of male Wistar rats
The experiment in a line: Measurements of [3H]noradrenaline uptake into rat cortical synaptosomes. Type of test: biochemical. The following applies: result in words; test described in the examples section. On the procedure: Measurements of ^3H]Noradrenaline Uptake into Rat Cortical Synaptosomes.
Fresh cortex from male Wistar rats (125-225 g) are homogenized in 0.4M sucrose with a glass/teflon homogenizer. The homogenate is centrifuged at 600×g for 10 min at 4° C. The pellet is discarded and the supernatant is centrifuged at 20.000×g for 55 min. The final pellet is homogenized (20 sec) in this assay buffer (6 mg original tissue/mL=4 mg/well). Test compounds (or buffer) and 10 nM [^3H]-noradrenaline are added to deep 96 well plates and shaken briefly. Composition of assay buffer: 123 mM NaCl, 4.82 mM KCl, 0.973 mM CaCl2, 1.12 mM MgSO4, 12.66 mM Na2HPO4, 2.97 mM NaH2PO4, 0.162 mM EDTA, 10 mM glucose and 1 mM ascorbic acid. Buffer is oxygenated with 95% O2/5% CO2 for 10 min at 37° C. and pH is adjusted 7.4. The incubation is started by adding tissue to a final assay volume of 1 ml. After 15 min incubation with radioligand at 37° C., samples are filtered directly on Unifilter GF/C glass fiber filters (soaked for 1 hour in 0.1% polyethylenimine) under vacuum and immediately washed with 3×1 mL assay buffer. Non-specific uptake is determined using talsupram (10 μM final concentration). Duloxetine is included as reference in all experiments as dose-response curve.

T2 sequence (Q63380 1-617): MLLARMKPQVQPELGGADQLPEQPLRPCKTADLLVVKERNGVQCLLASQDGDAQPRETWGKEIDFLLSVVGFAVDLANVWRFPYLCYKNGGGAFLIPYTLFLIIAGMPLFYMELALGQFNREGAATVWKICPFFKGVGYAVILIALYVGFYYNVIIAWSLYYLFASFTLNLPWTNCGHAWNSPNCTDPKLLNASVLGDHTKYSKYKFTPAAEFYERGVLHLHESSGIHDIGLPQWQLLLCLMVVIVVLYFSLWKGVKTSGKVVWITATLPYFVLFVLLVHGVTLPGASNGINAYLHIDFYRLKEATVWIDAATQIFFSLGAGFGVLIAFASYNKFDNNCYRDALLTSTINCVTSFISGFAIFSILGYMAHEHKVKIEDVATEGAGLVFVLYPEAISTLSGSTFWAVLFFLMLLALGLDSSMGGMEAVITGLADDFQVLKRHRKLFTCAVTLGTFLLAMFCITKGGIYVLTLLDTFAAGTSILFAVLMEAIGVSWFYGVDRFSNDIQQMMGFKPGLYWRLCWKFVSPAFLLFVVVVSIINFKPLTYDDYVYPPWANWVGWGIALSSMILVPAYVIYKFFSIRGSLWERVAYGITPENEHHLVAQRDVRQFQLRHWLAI

In the case of `Cc1cccc(Sc2ccccc2C2=CCNCC2)c1C` [Compound 33, 4-[2-(2,3-Dimethyl-phenylsulfanyl)-phenyl]-1,2,3,6-tetrahydro-pyridine], the serotonin reuptake inhibition entry in test [1] is given as “did show serotonin reuptake inhibition”. In addition, in test [2], the norepinephrine uptake inhibition result is “did not show norepinephrine uptake inhibition”.
In the same order, the values of `COc1ccc(Sc2ccccc2C2=CCNCC2)c(C)c1` [Compound 37, 4-[2-(4-Methoxy-2-methyl-phenylsulfanyl)-phenyl]-1,2,3,6-tetrahydro-pyridine] are “did show serotonin reuptake inhibition” and “did not show norepinephrine uptake inhibition”.
The matching figures for `Cc1ccc(Sc2ccc(C)cc2C2=CCNCC2)c(F)c1` [Compound 52, 4-[2-(2-Fluoro-4-methyl-phenylsulfanyl)-5-methyl-phenyl]-1,2,3,6-tetrahydro-pyridine]: “did show serotonin reuptake inhibition” and “did not show norepinephrine uptake inhibition”.
The matching figures for `COc1ccc(Sc2ccc(C)cc2C2=CCNCC2)c(F)c1` [Compound 61, 4-[2-(2-Fluoro-4-methoxy-phenylsulfanyl)-5-methyl-phenyl]-1,2,3,6-tetrahydro-pyridine]: “did show serotonin reuptake inhibition” and “did not show norepinephrine uptake inhibition”.
`Fc1cccc(Sc2ccccc2C2=CCNCC2)c1F` [Compound 83, 4-[2-(2,3-Difluoro-phenylsulfanyl)-phenyl]-1,2,3,6-tetrahydro-pyridine]: the serotonin reuptake inhibition result in test [1] was “did show serotonin reuptake inhibition”. The norepinephrine uptake inhibition result in test [2] is reported as “did not show norepinephrine uptake inhibition”.
Regarding `Cc1ccc(Sc2ccccc2C2=CCNCC2)c(Cl)c1` [Compound 84, 4-[2-(2-Chloro-4-methyl-phenylsulfanyl)-phenyl]-1,2,3,6-tetrahydro-pyridine], the serotonin reuptake inhibition result in test [1] is recorded as “did show serotonin reuptake inhibition”. The norepinephrine uptake inhibition result in test [2] is on record as “did not show norepinephrine uptake inhibition”.
The matching figures for `Cc1ccc(Sc2cccc(Cl)c2F)c(C2=CCNCC2)c1` [Compound 86]: “did show serotonin reuptake inhibition” and “did not show norepinephrine uptake inhibition”.
The matching figures for `Cc1c(F)cccc1Sc1ccccc1C1=CCNCC1` [Compound 87, 4-[2-(3-Fluoro-2-methyl-phenylsulfanyl)-phenyl]-1,2,3,6-tetrahydro-pyridine]: “did show serotonin reuptake inhibition” and “did not show norepinephrine uptake inhibition”.
In the same order, the values of `Cc1ccc(Sc2cccc(F)c2C)c(C2=CCNCC2)c1` [Compound 89, 4-[2-(3-Fluoro-2-methyl-phenylsulfanyl)-5-methyl-phenyl]-1,2,3,6-tetrahydro-pyridine] are “did show serotonin reuptake inhibition” and “did not show norepinephrine uptake inhibition”.
On to `Cc1ccc(Sc2ccc(C)c(F)c2)c(C2=CCNCC2)c1` [Compound 128, 4-[2-(3-Fluoro-4-methyl-phenylsulfanyl)-5-methyl-phenyl]-1,2,3,6-tetrahydro-pyridine], for which the serotonin reuptake inhibition entry in test [1] is on record as “did show serotonin reuptake inhibition”. Also, the norepinephrine uptake inhibition entry in test [2] was “did not show norepinephrine uptake inhibition”.
